Results on 17 compounds are retold here after patent US11178871B2, “Herbicidal pyrimidine compounds” (BASF SE, priority 2016, dated 2021).

Assay type in all cases: in vivo
For experiment [1], the system named is Poa annua. As to the kind of experiment: greenhouse test, pre-emergence treatment, POAAN. The source says:
(§1) The culture containers used were plastic flowerpots containing loamy sand with approximately 3.0% of humus as the substrate. The seeds of the test plants were sown separately for each species.
For the pre-emergence treatment, the active ingredients, which had been suspended or emulsified in water, were applied directly after sowing by means of finely distributing nozzles. The containers were irrigated gently to promote germination and growth and subsequently covered with transparent plastic hoods until the plants had rooted. This cover caused uniform germination of the test plants, unless this had been impaired by the active ingredients.
(§2) Depending on the species, the plants were kept at 10-25° C. or 20-35° C., respectively.
(§3) The test period extended over 2 to 4 weeks. During this time, the plants were tended, and their response to the individual treatments was evaluated.
(§4) Evaluation was carried out using a scale from 0 to 100. 100 means no emergence of the plants, or complete destruction of at least the aerial moieties, and 0 means no damage, or normal course of growth. A good herbicidal activity is given at values of at least 70 and a very good herbicidal activity is given at values of at least 85.
(§5) The plants used in the greenhouse experiments were of the following species: […]

Experiment [2] deals with Echinocloa crus-galli. Briefly: greenhouse test, post-emergence treatment, ECHCG. Particulars: post-emergence. The method, boiled down:
(§6)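 Post-emergence: plants grown in loamy sand (~3.0% humus) to 3-15 cm, then sprayed with active ingredient suspended or emulsified in water; kept at 10-25 °C or 20-35 °C by species. Damage rated visually after 2-4 weeks, 0 (none) to 100 (complete destruction of aerial parts).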

Experiment [3] deals with Alopecurus myosuroides. Briefly: greenhouse test, post-emergence treatment, ALOMY. Particulars: post-emergence. The method, boiled down: as §6
Experiment [4] relates to Apera spica-venti. Briefly: greenhouse test, pre-emergence treatment, APESV. The method, boiled down: (§7)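 Pre-emergence greenhouse test: seeds sown per species in loamy sand (about 3.0% humus), aqueous suspension or emulsion of active sprayed right after sowing, pots covered until rooting. Kept at 10-25 °C or 20-35 °C for 2 to 4 weeks; damage scored 0 (none) to 100 (no emergence/complete destruction).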

The test system of experiment [5] is Matricaria inodora. As to the kind of experiment: greenhouse test, post-emergence treatment, MATIN. Particulars: 2000 g/ha.
From the text: as §1
(§8) For the post-emergence treatment, the test plants were first grown to a height of 3 to 15 cm, depending on the plant habit, and only then treated with the active ingredients which had been suspended or emulsified in water. For this purpose, the test plants were either sown directly and grown in the same containers, or they were first grown separately as seedlings and transplanted into the test containers a few days prior to treatment.
as §2, §3, §4, §5

Experiment [6] deals with Amaranthus retroflexus. Briefly: greenhouse test, post-emergence treatment, AMARE. The method, boiled down: as §6
For experiment [7], the system named is Echinocloa crus-galli. As to the kind of experiment: greenhouse test, pre-emergence treatment, ECHCG. The method, boiled down: as §7
For experiment [8], the system named is Abutilon theophrasti. As to the kind of experiment: greenhouse test, post-emergence treatment, ABUTH.
From the text: as §1, §8, §2, §3, §4, §5

Experiment [9] concerns Avena fatua. As to the kind of experiment: greenhouse test, post-emergence treatment, AVEFA. The following applies: 2000 g/ha. An outline of the steps:
as §6

For experiment [10], the system named is Setaria viridis. Briefly: greenhouse test, post-emergence treatment, SETVI.
From the text: as §1, §8, §2, §3, §4, §5

In the case of `C=Cc1nc(C2CC2)ncc1-c1ccccc1Cl` [Ex. 211], the herbicidal activity entry in experiment [1] (2000 g/ha) is reported as “good (A good herbicidal activity is given at values of at least 70)”; in [2] (2000 g/ha) it was “very good (a very good herbicidal activity is given at values of at least 85)”; in experiment [3] (2000 g/ha), “good (A good herbicidal activity is given at values of at least 70)”; in experiment [4] (2000 g/ha), “good (A good herbicidal activity is given at values of at least 70)”.

As for `COC(=O)C(O)(CO)c1nc(C2CC2)ncc1-c1ccccc1Cl` (centres unmarked) [Ex. 230], the herbicidal activity entry in experiment [5] is “good (A good herbicidal activity is given at values of at least 70)”.

In the case of `Clc1cncc(-c2nc(C3CC3)ncc2-c2ccccc2Cl)c1` [Ex. 279], the herbicidal activity entry in experiment [6] (1000 g/ha), in experiment [7] (1000 g/ha), in experiment [3] (1000 g/ha), in experiment [4] (1000 g/ha) and in experiment [8] (1000 g/ha) was “very good (a very good herbicidal activity is given at values of at least 85)” each time.

For `OC(c1nc(C2CC2)ncc1-c1ccccc1Cl)C(O)c1c(Cl)ccc(Cl)c1Cl` (centres unmarked) [Ex. 241], the values for the herbicidal activity result in experiment [1] (2000 g/ha) and in experiment [2] (2000 g/ha) were “very good (a very good herbicidal activity is given at values of at least 85)” and “good (A good herbicidal activity is given at values of at least 70)”, respectively.

Consider `Brc1cc(-c2nc(C3CC3)ncc2-c2ccccc2Br)co1` [Ex. 268], for which the herbicidal activity entry in [1] (1000 g/ha), in experiment [2] (1000 g/ha) and in experiment [7] (1000 g/ha) was “very good (a very good herbicidal activity is given at values of at least 85)” in each case.

With `OC(Cc1nc(C2CC2)ncc1-c1ccccc1Cl)c1c(Cl)ccc(Cl)c1Cl` (centres unmarked) [Ex. 231], the herbicidal activity entry is reported as “very good (a very good herbicidal activity is given at values of at least 85)” in experiment [2] (2000 g/ha) and “good (A good herbicidal activity is given at values of at least 70)” in experiment [5].

For `CC(C)=CC(O)Cc1nc(C2CC2)ncc1-c1ccccc1Cl` (centres unmarked) [Ex. 223], the herbicidal activity entry in experiment [6] (2000 g/ha), in experiment [1] (2000 g/ha), in experiment [2] (2000 g/ha), in experiment [7] (2000 g/ha), in [4] (2000 g/ha) and in experiment [8] (2000 g/ha) was “very good (a very good herbicidal activity is given at values of at least 85)” throughout.

In the case of `Clc1ccc(Cl)c(/C=C/c2nc(C3CC3)ncc2-c2ccccc2Cl)n1` [Ex. 257], the herbicidal activity result in [5] is given as “good (A good herbicidal activity is given at values of at least 70)”.

For `CC1OC1c1nc(C2CC2)ncc1-c1ccccc1Br` (centres unmarked) [Ex. 213], the herbicidal activity entry in experiment [1] (2000 g/ha) is given as “good (A good herbicidal activity is given at values of at least 70)”; in experiment [2] (2000 g/ha), “very good (a very good herbicidal activity is given at values of at least 85)”; in [7] (2000 g/ha) it was “good (A good herbicidal activity is given at values of at least 70)”; in experiment [3] (2000 g/ha) it was “very good (a very good herbicidal activity is given at values of at least 85)”; in experiment [4] (2000 g/ha), “good (A good herbicidal activity is given at values of at least 70)”; in experiment [9], “very good (a very good herbicidal activity is given at values of at least 85)”.

Take `Fc1cccc(Cl)c1-c1cnc(C2CC2)nc1-c1ccoc1` [Ex. 41]: the herbicidal activity entry in [3] (2000 g/ha) and in experiment [5] was “very good (a very good herbicidal activity is given at values of at least 85)” each time.

As for `Clc1ccccc1-c1cnc(C2CC2)nc1-c1cccs1` [Ex. 29], the herbicidal activity entry in [6] (2000 g/ha) and in experiment [5] was “very good (a very good herbicidal activity is given at values of at least 85)” each time.

As to `CSc1ncc(-c2nc(C3CC3)ncc2-c2ccccc2Cl)cn1` [Ex. 248], the herbicidal activity result in experiment [10] (2000 g/ha), in experiment [1] (2000 g/ha), in experiment [2] (2000 g/ha), in [7] (2000 g/ha), in [3] (2000 g/ha) and in [4] (2000 g/ha) was “very good (a very good herbicidal activity is given at values of at least 85)” in each case.

Regarding `Cc1nc(C)c(-c2nc(C3CC3)ncc2-c2cc(C(F)(F)F)ccc2Cl)o1` [Ex. 278], the herbicidal activity result in [6] (1000 g/ha), in [2] (1000 g/ha), in experiment [7] (1000 g/ha), in [4] (1000 g/ha) and in experiment [8] (1000 g/ha) was “very good (a very good herbicidal activity is given at values of at least 85)” throughout.

Take `CC(=O)Cc1nc(C2CC2)ncc1-c1ccccc1Cl` [Ex. 146]: the herbicidal activity result in experiment [10] (2000 g/ha), in [2] (2000 g/ha), in experiment [7] (2000 g/ha), in experiment [4] (2000 g/ha) and in [8] (2000 g/ha) was “very good (a very good herbicidal activity is given at values of at least 85)” throughout.

On to `CC(C)(O)c1nc(C2CC2)ncc1-c1ccccc1Cl` [Ex. 86], for which the herbicidal activity result in experiment [6] (1000 g/ha) was “good (A good herbicidal activity is given at values of at least 70)”; in experiment [10] (1000 g/ha), “very good (a very good herbicidal activity is given at values of at least 85)”; in experiment [4] (1000 g/ha), “good (A good herbicidal activity is given at values of at least 70)”; in experiment [8] (1000 g/ha), “good (A good herbicidal activity is given at values of at least 70)”.

For the compound `CC1(C)OC(c2nc(C3CC3)ncc2-c2ccccc2Cl)C(C)(C)O1` (centres unmarked) [Ex. 266], the herbicidal activity entry in experiment [6] (1000 g/ha), in experiment [7] (1000 g/ha), in [3] (1000 g/ha), in [4] (1000 g/ha) and in [8] (1000 g/ha) was “very good (a very good herbicidal activity is given at values of at least 85)” each time.

As to `Clc1ccccc1-c1cnc(C2CC2)nc1-c1ccncn1` [Ex. 225], the herbicidal activity result in experiment [1] (2000 g/ha), in experiment [2] (2000 g/ha), in experiment [7] (2000 g/ha), in [3] (2000 g/ha), in experiment [4] (2000 g/ha) and in [9] was “very good (a very good herbicidal activity is given at values of at least 85)” each time.
